Results on 8 molecules are retold here after patent US20210139844A1, “REPROGRAMMING FIBROBLASTS TO RETINAL CELLS” (UNIVERSITY OF NORTH TEXAS HEALTH SCIENCE CENTER, priority 2017, published 2021).

Assay [1] has as its system Nrl-GFP MEFs. The assay is described as follows: Chemical reprogramming of Nrl-GFP MEFs to photoreceptor like cells (Nrl-GFP reporter). The note with it: for effect on reprogramming of removing the small molecule from the cocktail: small molecule subtracted from cocktail. Type of assay: cell-based, mouse.
Excerpt: Identification of small molecules for derivation of photoreceptor-like cells (CiPPC). […] The inventors have exploited this phenomenon to find out additional small molecules those might be important for the determination of retinal neuron specific fate. An array of small molecule along with different medium compositions and time points has been tested as possible candidates. Mouse Embryonic Fibroblasts (MEFs) from a photoreceptor specific reporter mouse (Nrl-GFP) are used as starting cells for the reprogramming studies (Akimoto et al., PNAS 103:3890-95, 2006). If converted to photoreceptors, these MEFs would have GFP expression from the Nrl promoter. […] This conversion requires three additional factors Sonic Hedgehog (S), Taurine (T) and Retinoic acid (R) introduced on day 8 (d8) (FIG. 1A and FIG. 1B). […] The inventors have tested the importance of each small molecule in the reprogramming process by using Nrl-GFP MEFs as starting cells.
All small molecules diluted in DMSO according to manufacturer's instruction. On day 0 about 35000 MEFs were seeded in each well of a 24 well plate (0.1% gelatin coated for O/N). At day 1 change the medium with photoreceptor induction medium (PIM) with V (0.5 mM), C (4.8 μM), R (2 μM) F (10 βM). On day 3 change the medium (PIM) with V, C, R, F plus IWR1 (I, 10 βM). Change the medium (PIM) with VCRFI on d5 and d6. On day 8 add Sonichedgehog (S, 3 nM), taurine molecules and factors. Finally on day 11 cells with GFP expression were observed. For the differentiation replace the medium with photoreceptor differentiation medium (PDM) and keep them up to d15 to d16. […] Cells were fixed or analyzed on day 7.
Assay [2] has as its system mitochondrial ROS. Put plainly: Measurement of mitochondrial ROS (MitoSox staining, fluorometry). Type of assay: cell-based, mouse. The source says: Mitochondrial ROS activates NF-kB which controls CiPPC reprogramming by retrograde signaling. Next the inventors investigated the reasons behind NFkβ activation. Known inducers of NF-kB are highly variable including TNFα, LPS, Ionizing radiation and mitochondrial ROS (Formentini et al., Mol Cell 45:731-42, 2012; Andreakos et al., Blood 103:2229-37, 2004). […] So the inventors contemplated that mitochondrial ROS generated by small molecule treatment may activate NF-kB. […] The inventors found increased accumulation of mitochondrial ROS indicator mitosox during reprogramming starting from d5 compared to control MEFs (FIG. 6A, FIG. 6B and FIG. 6C). To measure the importance of mROS during chemical reprogramming, conversion experiments were performed in the presence of mitochondrial ROS scavenger, mitotempo.
Measurement of mitochondrial ROS. Mitochondrial ROS was detected and quantified. […] Cells were then washed twice with PBS and fluorescence has been monitored with a microplate reader set to 510 nm excitation (Ex bandwidth: 10 nm) and 595 nm emission (Em bandwidth 35 nm) wavelengths. mROS generation was also micrographed by Leica fluorescence microscope an quantified in Leica Application Suite X Software. […] Average intensity within each ROI was measured and exported to Excel data sheet. Average change in fluorescence was calculated for each type of cells. […]

Assay [3] deals with HepG2 cells. The note with it: treated for several days; cited from earlier work.
Assay [4] concerns HFL1-Nrl-DsRed cells. Put plainly: Chemical reprogramming of human HFL1-Nrl-DsRed fibroblasts to photoreceptor like cells. It counts as cell-based. The note with it: added during reprogramming. The source says:
Identification of small molecules for derivation of photoreceptor-like cells (CiPPC). To identify small molecules responsible for retinal neuron specific fate, the inventors followed previous studies describing a set of small molecules that can convert fibroblasts into neurons (Hu et al., Cell stem cell 17:204-12, 2015; Zhang et al., Cell stem cell 17:735-47, 2015; Fu et al., Cell research 25, 2015; Cheng et al., Cell research 25:1269-72, 2015). Four out of six small molecules described in these studies, Valproic acid (V), CHIR(C), Repsox (R) and Forskolin(F), are able to convert fibroblast cells into mixed progenitor stage (Fu et al., Cell research 25, 2015). The inventors have exploited this phenomenon to find out additional small molecules those might be important for the determination of retinal neuron specific fate. An array of small molecule along with different medium compositions and time points has been tested as possible candidates. Mouse Embryonic Fibroblasts (MEFs) from a photoreceptor specific reporter mouse (Nrl-GFP) are used as starting cells for the reprogramming studies (Akimoto et al., PNAS 103:3890-95, 2006). If converted to photoreceptors, these MEFs would have GFP expression from the Nrl promoter. […] This conversion requires three additional factors Sonic Hedgehog (S), Taurine (T) and Retinoic acid (R) introduced on day 8 (d8) (FIG. 1A and FIG. 1B). Human fibroblasts (HFL1, ATCC CCL153) can also be converted into photoreceptor like cells by these small molecules. The inventors first generated a HFL-1 cell line having a lentivirally transduced DsRed reporter downstream of Nrl promoter. Drug selected HFL1-Nrl-DsRed cells were used for the reprogramming by the previously described mouse specific protocol with some modifications (FIG. 1C). Round shaped and neuron like Nrl promoter driven DsRed positive cells were evident starting from d6 to d8 (FIG. 1D). […]
All small molecules diluted in DMSO according to manufacturer's instruction. […] Cells were fixed or analyzed on day 7.

“Also recorded” adds a separate entry of the source.

As to `Cc1cnc(-c2cnc(NCCNc3ccc(C#N)cn3)nc2-c2ccc(Cl)cc2Cl)[nH]1` [CHIR, 6-[2-[[4-(2,4-dichlorophenyl)-5-(5-methyl-1H-imidazol-2-yl)pyrimidin-2-yl]amino]ethylamino]-pyridine-3-carbonitrile], in assay [1], the “effect on reprogramming of removing the small molecule from the cocktail” value (“effect on reprogramming” for short) is given as “worst effect on reprogramming process”.

As to `O=C(Nc1cccc2cccnc12)c1ccc(N2C(=O)[C@@H]3[C@H](C2=O)[C@@H]2C=C[C@H]3C2)cc1` [IWR1, N-(Quinolin-8-yl)-4-(exo-4-aza-3,5-dioxotricyclo[5.2.1.02,6]oct-8-en-4-yl)benzamide], in assay [1] (in presence of VCRF, d10 to d11, S, T, R introduced on d8), the “conversion of GFP negative MEFs into GFP+ photoreceptor like cells” value is “can covert GFP negative MEFs into GFP^+ positive round shaped photoreceptor like cells”. Also, in assay [1], the “effect on reprogramming” value is listed as “worst effect on reprogramming process; also recorded: reduced the reprogramming efficiency”. Also, the “mROS generation in reprogramming without the small molecule” value in assay [2] (d8) was “did not show increase in mROS generation”. In the case of `Cc1cccc(-c2n[nH]cc2-c2ccc3ncccc3n2)n1` [Repsox, 2-(3-(6-Methylpyridin-2-yl)-1H-pyrazol-4-yl)-1,5-naphthyridine], the “effect on reprogramming” value in assay [1] is “worst effect on reprogramming process”.

For `Oc1nc(-c2ccc(C(F)(F)F)cc2)nc2c1CSCC2` [XAV939], in assay [3], the axin stabilization entry is recorded as “can also stabilize the axin at cytosol”. Consider `CC1(C)CC(NC(=O)C[P+](c2ccccc2)(c2ccccc2)c2ccccc2)CC(C)(C)N1[O]` [mitotempo], for which, in assay [1] (conversion in presence of mROS scavenger, printed as 'significantly decreased yield ... (20%)'), the “yield of reprogrammed cells” value was found to be 20%. In assay [1] (data not shown), the “number of Nrl-GFP+ reprogrammed cells at different concentrations” value was “dose dependent relationship”. In addition, the “mROS generation upon scavenger treatment” value in assay [2] (mitoSox staining, fluorometric analysis) was “decrease of mROS generation”.

B1: NT3: factor added during human cell reprogramming (protein, UniProt P20783 139-257, looked up)
Neurotrophin-3: YAEHKSHRGEYSVCDSESLWVTDKSSAIDIRGHQVTVLGEIKTGNSPVKQYFYETRCKEARPVKNGCRGIDDKHWNSQCKTSQTYVRALTSENNKLVGWRWIRIDTSCVCALSRKIGRT
modifications: Neurotrophin-3
notes: factor added during human cell reprogramming
For B1, the “morphology of converted human photoreceptor like cells” value (from here on “morphology”) in assay [4] is “helped these converted human photoreceptor like cells to have a healthy morphology”.

B2: GDNF: factor added during human cell reprogramming (protein, UniProt P39905 78-211, looked up)
Glial cell line-derived …: SPDKQMAVLPRRERNRQAAAANPENSRGKGRRGQRGKNRGCVLTAIHLNVTDLGLGYETKEELIFRYCSGSCDAAETTYDKILKNLSRNRRLVSDKVGQACCRPIAFDDDLSFLDDNLVYHILRKHSAKRCGCI
For B2, the “morphology” value in assay [4] is recorded as “helped these converted human photoreceptor like cells to have a healthy morphology”.

B3: BDNF: factor added during human cell reprogramming (protein, UniProt P23560 129-247, looked up)
Neurotrophic factor BDNF: HSDPARRGELSVCDSISEWVTAADKKTAVDMSGGTVTVLEKVPVSKGQLKQYFYETKCNPMGYTKEGCRGIDKRHWNSQCRTTQSYVRALTMDSKKRIGWRFIRIDTSCVCTLTIKRGR
modifications: Neurotrophic factor BDNF
notes: as for B1
Regarding B3, in assay [4], the “morphology” value is “helped these converted human photoreceptor like cells to have a healthy morphology”.
